Source: ChEMBL document CHEMBL4834484, “Identification of isoform/domain-selective fragments from the selection of DNA-encoded dynamic library” (Bioorg Med Chem, 2021)

How the values were obtained:
[1] = target: T1, Bromodomain-containing protein 4 (Homo sapiens, UniProt O60885); test: Displacement of SGRG-K(Ac)-GG-K(Ac)-GLG-K(Ac)-GGA-K(Ac)-RHRKVGG-K(Biotin) from Europium chelated human BRD4 bromodomain 2 (342 to 460 residues) measured after 2 hrs by TR-FRET assay
[2] = target: T1, Bromodomain-containing protein 4; test: Displacement of SGRG-K(Ac)-GG-K(Ac)-GLG-K(Ac)-GGA-K(Ac)-RHRKVGG-K(Biotin) from Europium chelated human BRD4 bromodomain 1 (49 to 170 residues) measured after 2 hrs by TR-FRET assay
[3] = target: T2, NAD-dependent protein deacetylase sirtuin-2 (Homo sapiens, UniProt Q8IXJ6); test: Inhibition of human recombinant SIRT2 assessed as inhibition of substrate deacetylation using Gln-Pro-Lys-Lys- (epsilon acetyl) AMC peptide as substrate in presence of NAD+ measured by fluorescence based analysis
T2 sequence (Q8IXJ6 whole entry): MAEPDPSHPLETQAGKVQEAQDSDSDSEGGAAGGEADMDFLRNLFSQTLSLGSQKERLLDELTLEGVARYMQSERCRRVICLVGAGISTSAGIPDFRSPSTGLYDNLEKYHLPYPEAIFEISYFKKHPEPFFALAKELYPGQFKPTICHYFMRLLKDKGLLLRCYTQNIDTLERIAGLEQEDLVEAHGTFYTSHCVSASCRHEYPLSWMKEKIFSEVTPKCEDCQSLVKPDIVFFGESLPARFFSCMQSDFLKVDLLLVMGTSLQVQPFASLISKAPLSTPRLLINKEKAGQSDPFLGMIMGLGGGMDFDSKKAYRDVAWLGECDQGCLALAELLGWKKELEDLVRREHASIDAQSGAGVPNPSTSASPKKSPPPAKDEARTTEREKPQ

[4] = target: T2, NAD-dependent protein deacetylase sirtuin-2; test: Binding affinity to chip-immobilized recombinant human SIRT2 measured after 300 secs by surface plasmon resonance method
[5] = target: T3, NAD-dependent protein deacetylase sirtuin-1 (Homo sapiens, UniProt Q96EB6); test: Inhibition of human recombinant SIRT1 assessed as inhibition of substrate deacetylation using Gln-Pro-Lys-Lys- (epsilon acetyl) AMC peptide as substrate in presence of NAD+ measured by fluorescence based analysis
T3 sequence (Q96EB6 whole entry): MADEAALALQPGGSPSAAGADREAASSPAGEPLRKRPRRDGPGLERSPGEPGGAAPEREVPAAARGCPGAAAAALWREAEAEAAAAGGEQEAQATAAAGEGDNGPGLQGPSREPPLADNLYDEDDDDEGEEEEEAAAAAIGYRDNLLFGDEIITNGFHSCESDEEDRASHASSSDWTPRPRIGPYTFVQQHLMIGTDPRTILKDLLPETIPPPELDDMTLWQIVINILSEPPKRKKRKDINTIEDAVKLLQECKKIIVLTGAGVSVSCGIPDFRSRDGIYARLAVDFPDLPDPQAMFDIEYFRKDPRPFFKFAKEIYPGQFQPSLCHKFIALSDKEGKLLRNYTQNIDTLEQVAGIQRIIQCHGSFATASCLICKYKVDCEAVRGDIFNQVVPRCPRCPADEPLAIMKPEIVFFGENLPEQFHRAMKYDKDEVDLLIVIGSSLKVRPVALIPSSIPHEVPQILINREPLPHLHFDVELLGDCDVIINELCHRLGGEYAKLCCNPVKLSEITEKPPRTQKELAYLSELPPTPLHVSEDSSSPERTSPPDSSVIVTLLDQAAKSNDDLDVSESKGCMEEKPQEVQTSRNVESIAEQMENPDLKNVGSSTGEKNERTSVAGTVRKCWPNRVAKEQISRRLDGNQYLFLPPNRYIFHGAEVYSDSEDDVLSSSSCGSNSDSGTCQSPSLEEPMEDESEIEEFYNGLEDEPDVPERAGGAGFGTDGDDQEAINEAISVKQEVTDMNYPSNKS

[6] = target: T4, NAD-dependent protein deacetylase sirtuin-3, mitochondrial (Homo sapiens, UniProt Q9NTG7); test: Inhibition of human recombinant SIRT3 assessed as inhibition of substrate deacetylation using Gln-Pro-Lys-Lys- (epsilon acetyl) AMC peptide as substrate in presence of NAD+ measured by fluorescence based analysis
T4 sequence (Q9NTG7 whole entry): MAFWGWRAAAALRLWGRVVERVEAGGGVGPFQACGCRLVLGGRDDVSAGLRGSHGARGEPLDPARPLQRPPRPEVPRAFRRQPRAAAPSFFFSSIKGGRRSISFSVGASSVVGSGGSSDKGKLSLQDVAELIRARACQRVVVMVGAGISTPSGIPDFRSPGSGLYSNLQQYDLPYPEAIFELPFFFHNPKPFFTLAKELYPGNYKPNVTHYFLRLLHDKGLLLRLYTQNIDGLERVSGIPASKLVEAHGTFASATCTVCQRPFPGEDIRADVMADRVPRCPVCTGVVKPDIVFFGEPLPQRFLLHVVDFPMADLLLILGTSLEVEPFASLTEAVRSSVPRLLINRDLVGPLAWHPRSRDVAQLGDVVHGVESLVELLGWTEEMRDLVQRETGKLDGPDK

[7] = target: T3, NAD-dependent protein deacetylase sirtuin-1; test: Binding affinity to chip-immobilized recombinant human SIRT1 measured after 300 secs by surface plasmon resonance method
[8] = target: T4, NAD-dependent protein deacetylase sirtuin-3, mitochondrial; test: Binding affinity to chip-immobilized recombinant human SIRT3 measured after 300 secs by surface plasmon resonance method

SMILES | IC50 [3] | Ki [3] | also measured
CNC(=O)c1cn2c3c(c(N4CCN(C)CC4)c(F)cc3c1=O)OCC2C (configuration not stated) |  |  | IC50 [1]: 321 µM; IC50 [2]: 1130 µM
O=C(NCc1ccc(CNC(=O)c2cccc(-c3cccnc3)c2)cc1)c1cccc(-c2cccnc2)c1 | 91 µM | 26 µM | 
CC1COc2c(N3CCN(C)CC3)c(F)cc3c(=O)c(C(=O)NCCOCCOCCOCCNC(=O)CCc4nc(-c5ccncc5)no4)cn1c23 (configuration not stated) | 24 µM | 7 µM | Kd [4]: 24 µM
CNC(=O)CSC |  |  | IC50 [1]: 1160 µM
CC1COc2c(N3CCN(C)CC3)c(F)cc3c(=O)c(C(=O)NCc4ccc(CNC(=O)CCc5nc(-c6ccncc6)no5)cc4)cn1c23 (configuration not stated) | 193 µM | 56 µM | 
CC1COc2c(N3CCN(C)CC3)c(F)cc3c(=O)c(C(=O)NCCCCCC(=O)N(C)CCCN4c5ccccc5CCc5ccccc54)cn1c23 (configuration not stated) |  |  | IC50 [1]: 30 µM; IC50 [2]: 107 µM
CC1COc2c(N3CCN(C)CC3)c(F)cc3c(=O)c(C(=O)NCc4ccc(CNC(=O)c5cn6c7c(c(N8CCN(C)CC8)c(F)cc7c5=O)OCC6C)cc4)cn1c23 (configuration not stated) | 186 µM | 54 µM | 
CSCC(=O)NCCCCCC(=O)N(C)CCCN1c2ccccc2CCc2ccccc21 |  |  | IC50 [1]: 231 µM; IC50 [2]: 972 µM
O=C1CC(C(=O)NCCCNCC(=O)C2CC3CCC2C3)c2ccccc21 (configuration not stated) |  |  | IC50 [5]: 330 µM; Ki [5]: 203 µM
O=C1CC(C(=O)NCCCCCCNCC(=O)C2CC3CCC2C3)c2ccccc21 (configuration not stated) | 938 µM | 272 µM | IC50 [6]: 621 µM; Ki [6]: 447 µM; IC50 [5]: 78 µM; Ki [5]: 48 µM
CC1COc2c(N3CCN(C)CC3)c(F)cc3c(=O)c(C(=O)NCCOCCOCCNC(=O)c4cn5c6c(c(N7CCN(C)CC7)c(F)cc6c4=O)OCC5C)cn1c23 (configuration not stated) | 383 µM | 111 µM | 
O=C1CC(C(=O)NCc2ccc(CNCC(=O)C3CC4CCC3C4)cc2)c2ccccc21 (configuration not stated) |  |  | IC50 [5]: 195 µM; Ki [5]: 120 µM
O=C1CC(C(=O)NCCOCCOCCOCCNCC(=O)C2CC3CCC2C3)c2ccccc21 (configuration not stated) |  |  | IC50 [5]: 1050 µM; Ki [5]: 645 µM
CC1COc2c(N3CCN(C)CC3)c(F)cc3c(=O)c(C(=O)NCCOCCOCCOCCNC(=O)c4cn5c6c(c(N7CCN(C)CC7)c(F)cc6c4=O)OCC5C)cn1c23 (configuration not stated) | 316 µM | 92 µM | 
COc1cc(CC(=O)NCCOCCOCCNC(=O)c2cn3c4c(c(N5CCN(C)CC5)c(F)cc4c2=O)OCC3C)cc(OC)c1OC (configuration not stated) | 32 µM | 9 µM | Kd [4]: 32 µM
O=C(NCCOCCOCCNC(=O)c1cccc(-c2cccnc2)c1)c1cccc(-c2cccnc2)c1 | 99 µM | 29 µM | 
COc1cc(CC(=O)NCCOCCOCCOCCNC(=O)c2cn3c4c(c(N5CCN(C)CC5)c(F)cc4c2=O)OCC3C)cc(OC)c1OC (configuration not stated) | 7 µM | 2 µM | Kd [4]: 7 µM

SMILES | IC50 [3] | Ki [3] | also measured
COc1cc(CC(=O)NCc2ccc(CNC(=O)c3cn4c5c(c(N6CCN(C)CC6)c(F)cc5c3=O)OCC4C)cc2)cc(OC)c1OC (configuration not stated) | 985 µM | 286 µM | 
CC1COc2c(N3CCN(C)CC3)c(F)cc3c(=O)c(C(=O)NCCOCCOCCNC(=O)CCc4nc(-c5ccncc5)no4)cn1c23 (configuration not stated) | 186 µM | 54 µM | 
COc1cc(CC(=O)NCCCNC(=O)c2cccc(-c3cccnc3)c2)cc(OC)c1OC | 299 µM | 87 µM | 
COc1cc(CC(=O)NCCCCCCNC(=O)c2cn3c4c(c(N5CCN(C)CC5)c(F)cc4c2=O)OCC3C)cc(OC)c1OC (configuration not stated) | 33 µM | 9 µM | Kd [4]: 33 µM
COc1cc(CC(=O)NCCOCCOCCNC(=O)c2cccc(-c3cccnc3)c2)cc(OC)c1OC | 97 µM | 28 µM | 
O=C(NCCCCCCNC(=O)c1cccc(-c2cccnc2)c1)c1cccc(-c2cccnc2)c1 | 39 µM | 12 µM | Kd [7]: 118 µM; Ki [5]: 73 µM; Kd [4]: 40 µM
CC1COc2c(N3CCN(C)CC3)c(F)cc3c(=O)c(C(=O)NCCCNC(=O)c4cn5c6c(c(N7CCN(C)CC7)c(F)cc6c4=O)OCC5C)cn1c23 (configuration not stated) | 303 µM | 88 µM | 
CC1COc2c(N3CCN(C)CC3)c(F)cc3c(=O)c(C(=O)N(C)CCCN4c5ccccc5CCc5ccccc54)cn1c23 (configuration not stated) |  |  | IC50 [1]: 41 µM; IC50 [2]: 227 µM
O=C1CC(C(=O)NCCOCCOCCNCC(=O)C2CC3CCC2C3)c2ccccc21 (configuration not stated) |  |  | IC50 [5]: 298 µM; Ki [5]: 183 µM
COc1cc(CC(=O)NCCOCCOCCOCCNC(=O)c2cccc(-c3cccnc3)c2)cc(OC)c1OC | 93 µM | 27 µM | 
COc1cc(CC(=O)NCCCNC(=O)c2cn3c4c(c(N5CCN(C)CC5)c(F)cc4c2=O)OCC3C)cc(OC)c1OC (configuration not stated) | 39 µM | 11 µM | Kd [4]: 39 µM
COc1cc(CC(=O)NCCCCCCNC(=O)c2cccc(-c3cccnc3)c2)cc(OC)c1OC | 44 µM | 13 µM | Kd [7]: 139 µM; Kd [8]: 488 µM; Ki [6]: 351 µM; Ki [5]: 85 µM; Kd [4]: 44 µM
COc1cc(CC(=O)NCc2ccc(CNC(=O)c3cccc(-c4cccnc4)c3)cc2)cc(OC)c1OC | 25 µM | 7 µM | Kd [8]: 392 µM; Ki [6]: 282 µM; Kd [4]: 25 µM
O=C(NCCOCCOCCOCCNC(=O)c1cccc(-c2cccnc2)c1)c1cccc(-c2cccnc2)c1 | 22 µM | 6 µM | Kd [7]: 56 µM; Kd [8]: 297 µM; Ki [6]: 214 µM; Ki [5]: 35 µM; Kd [4]: 22 µM
CSCC(=O)N(C)CCCN1c2ccccc2CCc2ccccc21 |  |  | IC50 [1]: 153 µM; IC50 [2]: 1320 µM
CC1COc2c(N3CCN(C)CC3)c(F)cc3c(=O)c(C(=O)NCCCNC(=O)CCc4nc(-c5ccncc5)no4)cn1c23 (configuration not stated) | 52 µM | 15 µM | 
CC1COc2c(N3CCN(C)CC3)c(F)cc3c(=O)c(C(=O)NCCCCCCNC(=O)CCc4nc(-c5ccncc5)no4)cn1c23 (configuration not stated) | 107 µM | 31 µM | 
